From patent publication US9220719B2, “Single dose oral formulations and methods for treatment of cats with ectoparasiticidal spinosad” (priority 2012, dated 2015)

Assay: Pharmacokinetics of spinosad API capsules and spinosad tablets after oral administration to cats (Example 2)
Conditions: cats, oral; for mean normalized AUC0-∞ / mean normalized Cmax: plasma, normalized to dose
Description: The plasma concentrations and resulting pharmacokinetics of spinosad tablets when administered orally to adult cats in the fed or fasted state can be evaluated. Twenty four cats (12 male and 12 female) can be dosed with approximately 80 mg/kg spinosad, as either API in gelatin capsules or as spinosad formulated chewable tablets. Serial blood samples can be collected through 672 hours (28 days) after dose administration. […] Samples can be immediately mixed by inversion several times and stored on ice until centrifuged. The plasma can be collected, split into two approximately equal aliquots and stored frozen at approximately −70° C. until shipped for analysis, and/or analyzed by a validated LC/MS/MS assay.

[1] = group 1: 80 mg/kg spinosad API in gel capsules, fed
[2] = group 2: 80 mg/kg spinosad tablets, fed
[3] = group 3: 80 mg/kg spinosad tablets, fasted

For spinosyn A, the “mean Tmax” value [1] was 12 ± 5.2 h, the “mean elimination half-life (t1/2)” value [1] was 13.6 ± 3.51 days and the “mean normalized AUC0-∞” value [1] was 4,460±1410 hr*ng*kg/mg*mL. For the same substance, the “mean normalized Cmax” value [1] was 60 ± 18 ng·kg/mg/mL, the “mean Tmax” value [2] was 10 ± 3.0 h and the “mean elimination half-life (t1/2)” value [2] was 11.5 ± 3.15 days. The “mean normalized AUC0-∞” value [2] was 4,480±1180 hr*ng*kg/mg*mL, the “mean normalized Cmax” value [2] was 46 ± 14 ng·kg/mg/mL and the “mean Tmax” value [3] was 6.0 ± 3.7 h. For the same substance, the “mean elimination half-life (t1/2)” value [3] was 8.04 ± 2.52 days, the “mean normalized AUC0-∞” value [3] was 781 ± 406 ng·kg·h/mg/mL and the “mean normalized Cmax” value [3] was 11 ± 6.6 ng·kg/mg/mL.
